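How tested: cells in 96-well plates exposed to compound for 48 hours at five concentrations. TGI: total growth inhibition.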
Assays:
Assay in all cases: inhibition of tumour cell growth, NCI panel, 48 h
CAKI-1 renal = tested on: CAKI-1 renal
UO-31 renal = tested on: UO-31 renal
A549 NSCLC = tested on: A549 NSCLC
KM12 colon = tested on: KM12 colon
SF-539 CNS = tested on: SF-539 CNS
SR leukemia = tested on: SR leukemia
MDA-MB-231 breast = tested on: MDA-MB-231 breast
NCI-H226 lung = tested on: NCI-H226 lung
SK-MEL-5 melanoma = tested on: SK-MEL-5 melanoma
OVCAR-3 ovarian = tested on: OVCAR-3 ovarian
SF-268 CNS = tested on: SF-268 CNS

Compound	TGI (CAKI-1 renal)	TGI (UO-31 renal)	TGI (A549 NSCLC)	TGI (KM12 colon)	TGI (SF-539 CNS)	TGI (SR leukemia)	TGI (MDA-MB-231 breast)	TGI (NCI-H226 lung)	TGI (SK-MEL-5 melanoma)	TGI (OVCAR-3 ovarian)	TGI (SF-268 CNS)
S=C1Cc2c(-c3ccccc3)cc(-c3cccc(Cl)c3)nc2-c2ccccc2N1	9.23 µM	16.9 µM	22.5 µM	> 100 µM	8.54 µM	46.9 µM	5.66 µM	19.4 µM	> 81.7 µM	25.9 µM	17.7 µM
C=C1CC[C@@H](CCC2CCC3(OC2)O[C@]2(O)CC[C@@]3(C)OC2(C)C)C(C)(C)[C@H]1C/C=C1\CCOC1=O (some centres undefined)	> 88.1 µM	> 100 µM	> 100 µM	> 60.3 µM	> 32.4 µM	> 52.2 µM	> 80.4 µM	35.2 µM	4.93 µM	54.8 µM	> 100 µM
Cc1ccc(N=N/C(=N/NC(=O)c2ccccc2)c2ccc(N(CCC#N)CCC#N)cc2C)cc1	> 100 µM	> 100 µM	> 100 µM	> 100 µM	64.7 µM	> 100 µM	> 100 µM	> 100 µM	> 100 µM	> 100 µM	> 100 µM
O=C(CSCC(=O)N/N=C/c1cccc(O)c1)N/N=C/c1cccc(O)c1	> 100 µM	> 100 µM	> 100 µM	> 100 µM	> 100 µM	> 100 µM	> 100 µM	> 100 µM	> 100 µM	> 100 µM	> 100 µM
COC(=O)c1cc2c(cc1Cl)Sc1nnc(Nc3ccccc3)n1S2(=O)=O	7.23 µM	7.56 µM	26.9 µM	8.11 µM	6.07 µM	5.36 µM	17.7 µM	14.8 µM	21.2 µM	3.36 µM	5.48 µM
N#Cc1ccccc1OCCOc1ccccc1C#N	> 100 µM	> 100 µM	> 100 µM	> 100 µM	> 100 µM	> 100 µM	> 100 µM	> 100 µM	> 100 µM	> 100 µM	> 100 µM
Cc1ccc(OCC2OC(n3cnc4c(Cl)nc(Nc5cc(Cl)cc(Cl)c5)nc43)CC2Oc2ccc(C)cc2)cc1 (centres undefined)	> 100 µM	> 100 µM	> 100 µM	> 100 µM	> 100 µM	> 100 µM	> 100 µM	> 100 µM	> 100 µM	> 100 µM	> 100 µM
O=C(CCc1cc(O)cc(O)c1)NCCc1cc(O)cc(OCc2ccccc2)c1	> 100 µM	> 100 µM	> 100 µM	> 100 µM	> 100 µM	87.3 µM	> 100 µM	> 100 µM	37.1 µM	> 100 µM	> 100 µM
CSC(=O)/C=C1\SS/C(=C\C(=O)SC)S1	4.25 µM	6.89 µM	19.6 µM	13 µM	6.93 µM	> 100 µM	4.85 µM	3.41 µM	6.79 µM	11.2 µM	6.72 µM

Source: PubChem BioAssay (NCI)
